Measured values from patent US12414918B2, “Pharmaceutical composition of lipid nanoparticle for delivering nucleic acid drug containing trehalose derivative and novel structure-maintaining lipid compound” (SML BIOPHARM CO., LTD., priority 2021, dated 2025).

Test system: Renilla luciferase (R/L) expression
Assay: Evaluation of delivery efficiency by detection of protein expression level (R/L mRNA-LNP injected intradermally into mouse ear, luminescence of ear lysate)
Format: in vivo, ICR mice
Details: ionizable lipid:trehalose-based lipid:DOPE:cholesterol (or substitute):DMG-PEG 25:25:10:38.5:1.5
Protocol: An RNA platform in which a nucleic acid sequence encoding Renilla luciferase (R/L), which has an IRES element derived from encephalomyocarditis virus (EMCV) and is a known reporter gene, was inserted as a target sequence was constructed. The template DNA was designed and the nucleic acid molecule of the single-stranded RNA platform was constructed using an IVT procedure.
Lipid nanoparticles were prepared from 0.625 mg/mL of an RNA solution (50 mM sodium citrate buffer, 110 mM NaCl, pH=4.0) and a lipid-mixture solution (ethanol) using a laboratory mixer and emulsifier (NanoAssembir Spark, Precision NanoSystems) and subjected to solvent conversion with physiological saline using a filter tube for centrifugation (UFC5010, Amicon). […]
The experiment was performed according to the following procedure. […] R/L, which was actually tested, expression, and maintenance were detected at two points of time: after 6 hours and 24 hours.
Each mouse was anesthetized using a respiratory anesthetic, and a drug that satisfied the experimental conditions was injected into the mouse through an insulin syringe. […] Then, 20 μl of the mixture was transferred to a white 96-well plate, 100 μl of Renilla luciferase assay substrate from Promega Corporation was added thereto, and luminescence was measured to compare expression.

Row | Structure (SMILES) | usability as cholesterol substitute in lipid nanoparticles
1 | CCCCOC(=O)CC[C@H](C)[C@H]1CC[C@H]2[C@@H]3CC[C@@H]4C[C@H](O)CC[C@]4(C)[C@H]3CC[C@]12C [Formula 4] | appropriate cholesterol substitutes
2 | CCC(C)CCOC(=O)CC[C@H](C)[C@H]1CC[C@H]2[C@@H]3CC[C@@H]4C[C@H](O)CC[C@]4(C)[C@H]3CC[C@]12C (some centres unmarked) [Formula 5] | appropriate cholesterol substitutes
